Measured values reported in US20260144770A1, “COMPOSITION FOR INHIBITING SEBUM SECRETION CONTAINING A THYMOL ESTER-BASED COMPOUND” (AMOREPACIFIC CORPORATION, priority 2024, published 2026).

Test system: Human sebocytes
Experiment: Test of sebum secretion-inhibiting effect using human sebocytes (linoleic acid-induced, Bodipy lipid staining)
Format: cell-based
Experimental: Human sebocytes were cultured for 24 hours in an environment of 37° C. and 5% CO2 with Sebocyte Complete Culture Media (Celprogen), and then treated with 100 μM linoleic acid and 0.1, 0.5, 1, and 2 ppm Melasolv and cultured for another 48 hours.
Thereafter, the cells were fixed with formaldehyde, and lipids were stained with 2 μM Bodipy. Fluorescence intensity was measured at a specific wavelength (Excitation/Emission: 485/528 nm) using a Fluorescent Plate Reader.

SMILES | amount of sebum production (concentration dependence) (0.1, 0.5, 1, and 2 ppm Melasolv together with 100 μM linoleic acid, 48 hours (FIG. 1)) | sebum production seen in fluorescence photograph (FIG. 2) (2 ppm Melasolv, naked-eye observation of Bodipy fluorescence photograph) | inhibition at 2 ppm (Homo sapiens, 2 ppm Melasolv with 100 μM linoleic acid, 48 hours, based on the amount of sebum production induced by linoleic acid, Bodipy fluorescence (FIG. 1)) | sebum production, percentage compared to the untreated control group (100%) (100 μM linoleic acid alone (inducer), 48 hours, Bodipy fluorescence)
COc1cc(/C=C/C(=O)Oc2cc(C)ccc2C(C)C)cc(OC)c1OC [Melasolv, (5-methyl-2-propan-2-ylphenyl) (E)-3-(3,4,5-trimethoxyphenyl)prop-2-enoate] | decreased in proportion to the concentration | most inhibited | ~60.3% | 
CCCCC/C=C\C/C=C\CCCCCCCC(=O)O [linoleic acid, reference compound] |  |  |  | 142%
